The text below walks through data of patent US20260242390A1, “TOTAL SYNTHESES OF PORTIMINE A AND ANALOGUES THEREOF AS SMALL MOLECULE MODULATORS OF NMD3” (priority 2023, published 2026).

For orientation: IC50 means the concentration that gives 50% inhibition.

One assay deals with p53. Put plainly: p53 protein level in Jurkat cells. In kind it is cell-based, human. The method, then:
(§1) FIG. 7. Portimine A targets NMD3 and prevents polysome formation. […] (A) Immunoblot showing reduced NMD3 levels in shNMD3 Jurkat and HeLa cells. […] Jurkat cells were treated with 12.5 nM of PA for 12 or 24 hours. Jurkat and HeLa cells were treated with 5 nM or 150 nM of PA for 24 hours. Data represents mean±SD of biologically replicated experiments (n=3). […] Cell lysates were fractionated by sucrose gradient (5-50%) and each fraction were analyzed by western blot. eIF6 levels increase in 60S subunit fraction and decrease in ribosome-free fractions after PA treatment. RPS6, a 40S and polysome subunits marker, is decreased in polysome fractions after PA treatment. Results are representative of three independent experiments. […] Relative protein levels in each fraction were normalized to the peak fraction of the indicated protein from the DMSO cells and plotted. Data represents mean±SD of biologically replicated experiments (n=3). Statistical analysis was performed using multiple unpaired Student t-test. * p≤0.05; ** p≤0.01; *** p≤0.005; **** p≤0.0001. Treatment condition: Jurkat (5 M per condition); Incubate cells (1 M/mL) with inhibitors for 6 hr, 12 hr and 24 hr, respectively.
(§2) • 1) Portimine A and its functional analogs show stereo-selective acute toxicity in cancer cells (FIG. 1). […] (B) Structure of portimine related analogs: phenyl-portimine A (Ph-PA, 36) and epi-portimine A (ePA, 38). […]

The next assay deals with HT-1080. The experiment in a line: Broad cell line profiling, HT-1080. It is filed as cell-based. The settings on record: HT-1080, Human Fibrosarcoma; read-out: PA IC50. An excerpt:
(§3) • A panel of human and mouse cancer cell types used to assess the breadth of PA activity, including multiple therapy resistant metastatic mesenchymal tumor cell lines and primary glioblastoma patient-derived metastatic stem/tumor initiating cell populations.

For the next assay, the system named is GBM-F. The experiment in a line: Broad cell line profiling, GBM-F. In kind it is cell-based. The conditions noted are these: Homo sapiens, Glioblastoma Cancer Stem Cell, read-out: PA IC50.
From the text: as §3

In the next assay the test system is MC38. Put plainly: Broad cell line profiling, MC38. It is filed as cell-based. The settings on record: MC-38; MC38, Mouse Colon Carcinoma; read-out: PA IC50.
From the text: as §3

Assay [1] deals with shNMD3 Jurkat and HeLa cells. Put plainly: Toxicity in NMD3 knock-down (shNMD3) cells. The settings on record: Jurkat 12.5 nM 12 or 24 hours; Jurkat and HeLa 5 nM or 150 nM 24 hours. It is filed as cell-based, human. The method, then:
as §1, §2

The test system of the next assay is 786-O. Put plainly: Broad cell line profiling, 786-O. In kind it is cell-based. The settings on record: Homo sapiens, 786-0, Renal Adenocarcinoma, read-out: PA IC50.
From the text: as §3

For another assay, the system named is MD-MBA-231. The experiment in a line: Broad cell line profiling, MD-MBA-231. In kind it is cell-based. The conditions noted are these: Homo sapiens; MD-MBA-231, TNBC Breast Adenocarcinoma; read-out: PA IC50.
From the text: as §3

For the next assay, the system named is XPO1. The experiment in a line: XPO1 protein level in Jurkat cells. In kind it is cell-based, human. The method, then: as §1, §2
The test system of a further assay is HCC1806. Put plainly: Broad cell line profiling, HCC1806. It is filed as cell-based. The conditions noted are these: Homo sapiens; HCC1806, Acantholytic Squamous Carcinoma; read-out: PA IC50.
From the text: as §3

Another assay relates to U118. The experiment in a line: Broad cell line profiling, U118. It is filed as cell-based. The conditions noted are these: Homo sapiens; U118, Glioblastoma; read-out: PA IC50.
From the text: as §3

For the molecule `C=CC1=C[C@@H]2[C@@H]3O[C@]4(CC[C@H](O4)C(C)C[C@@H](O)C3=O)CC(O)C3=NCC[C@@]32CC1` (stereo partly shown) [PA, portimine A], the p53 level result in the assay on p53 was “downregulated”. In addition, the IC50 amounted to 0.83 nM in the assay with HT-1080; 2.6 nM in the assay on GBM-F; 0.55 nM in the assay on MC38; 1.8 nM in the assay with 786-O; 0.68 nM in the assay with MD-MBA-231; 0.72 nM with HCC1806. Further, the IC50 with U118 was 5.6 nM. For the same molecule, the “toxic effects in shNMD3 compared to shCtrl cells” value in assay [1] is reported as “less toxic effects”. Further, the XPO1 levels result in the assay with XPO1 is on record as “unaffected”.
